Assay results as given in patent US12257243B2, “5-hydroxy-7-oxabicyclo[2.2.1]heptane-2-carboxamide derivatives for inducing chondrogenesis for treating joint damage” (NOVARTIS AG, priority 2018, dated 2025).
Where two headings read alike, the source gives them in different places.

System: ALP in normal human articular chondrocytes (NHACs)
Experiment: Alkaline Phosphatase (ALP) activity assay (staining and quantitation) in NHACs, prevention of chondrocyte hypertrophy
Format: cell-based
Settings: human IL-1 beta 10 ng/mL, 12 days; for IC50: Fast Blue RR staining, high content imaging, read-out: ALP in NHAC IC50; for Emax / ALP in NHAC (% Efficacy): value in parentheses; for Emax: read-out: ALP in NHAC (% Efficacy)
In short: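 Hypertrophy readout: ALP staining (Fast Blue RR with naphthol AS-MX phosphate) plus Hoechst, imaged at 561 nm and/or quantified by high-content multiwavelength cell scoring. Before staining, NHACs (7,500/well, DMEM/10% FBS) were exposed to compound for 5 h, then cultured with 10 ng/mL IL-1β for 12 days at 37 °C.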

Compound	IC50 (Chondrocyte, 288 h)	Emax (Chondrocyte, 288 h)	IC50	ALP in NHAC (% Efficacy)
O=C(Nc1cccc(C(F)(F)F)c1)[C@@H]1[C@@H](c2cncc(C(F)(F)F)c2)[C@H]2O[C@@H]1C[C@@H]2O (racemic) [Example 81, rac-(1R,2R,3S,4R,5S)-5-hydroxy-N-(3-(trifluoromethyl)phenyl)-3-(5-(trifluoromethyl)pyridin-3-yl)-7-oxabicyclo[2.2.1]heptane-2-carboxamide]	19 µM	59%		
O=C(Nc1cc(F)cc(C(F)(F)F)c1)[C@@H]1[C@@H](c2cccc(C(F)(F)F)c2)[C@H]2O[C@@H]1C[C@@H]2O (racemic) [Example 17, rac-(1R,2R,3S,4R,5S)—N-(3-fluoro-5-(trifluoromethyl)phenyl)-5-hydroxy-3-(3-(trifluoromethyl)phenyl)-7-oxabicyclo[2.2.1]heptane-2-carboxamide]	13 µM	105%		
O=C(Nc1cccc(C(F)(F)F)c1)[C@@H]1[C@@H](c2cccc(C(F)(F)F)c2)[C@H]2O[C@@H]1C[C@@H]2O (racemic) [Example 10, rac-(1R,2R,3S,4R,5S)-5-hydroxy-N,3-bis(3-(trifluoromethylphenyl)-7-oxabicyclo[2.2.1]heptane-2-carboxamide]	12 µM	108%		
Cc1ccc(C(F)(F)F)cc1NC(=O)[C@@H]1[C@@H](c2cn(C)nc2C(F)(F)F)[C@H]2O[C@@H]1C[C@@H]2O (racemic) [Example 54, rac-(1R,2R,3S,4R,5S)-5-hydroxy-3-(1-methyl-3-(trifluoromethyl)-1H-pyrazol-4-yl)-N-(2-methyl-5-(trifluoromethyl)phenyl)-7-oxabicyclo[2.2.1]heptane-2-carboxamide]	4.1 µM	52%		
COc1ccc(C(F)(F)F)cc1NC(=O)[C@@H]1[C@@H](c2cn(C)nc2C(F)(F)F)[C@H]2O[C@@H]1C[C@@H]2O (racemic) [Example 33, rac-(1R,2R,3S,4R,5)-5-hydroxy-N-(2-methoxy-5-(trifluoromethyl)phenyl)-3-(1-methyl-3-(trifluoromethyl)-1H-pyrazol-4-yl)-7-oxabicyclo[2.2.1]heptane-2-carboxamide]	2.8 µM	74%		
Cn1cc([C@H]2[C@H]3O[C@H](C[C@@H]3O)[C@@H]2C(=O)Nc2cc(C(F)(F)F)ccc2C#N)c(C(F)(F)F)n1 (single isomer, unassigned) [Example 49b, (1R,2R,3S,4R,5N-(2-cyano-5-(trifluoromethyl)phenyl)-5-hydroxy-3-(1-methyl-3-(trifluoromethyl)-1H-pyrazol-4-yl)-7-oxabicyclo[2.2.1]heptane-2-carboxamide or (1S,2S,3R,4S,5R)—N-(2-cyano-5-(trifluoromethyl)phenyl)-5-hydroxy-3-(1-methyl-3-(trifluoromethyl)-1H-pyrazol-4-yl)-7-oxabicyclo[2.2.1]heptane-2-carboxamide]			23 µM	54%
Cn1cc([C@H]2[C@H]3O[C@H](C[C@@H]3O)[C@@H]2C(=O)Nc2cc(C(F)(F)F)ccn2)c(C(F)(F)F)n1 (racemic) [Example 38, rac-(1R,2R,3S,4R,5S)-5-hydroxy-3-(1-methyl-3-(trifluoromethyl)-1H-pyrazol-4-yl)-N-(4-(trifluoromethyl)pyridin-2-yl)-7-oxabicyclo[2.2.1]heptane-2-carboxamide]	3.6 µM	94%		
O=C(Nc1cccc(C(F)(F)F)c1)[C@@H]1[C@@H](c2cnc(C(F)(F)F)nc2)[C@H]2O[C@@H]1C[C@@H]2O (racemic) [Example 83, rac-(1R,2R,3S,4R,5S)-5-hydroxy-N-(3-(trifluoromethyl)phenyl)-3-(2-(trifluoromethyl)pyrimidin-5-yl)-7-oxabicyclo[2.2.1]heptane-2-carboxamide]	24 µM	43%		
Cc1cc(NC(=O)[C@@H]2[C@@H](c3cccc(C(F)(F)F)c3)[C@H]3O[C@@H]2C[C@@H]3O)cc(C(F)(F)F)c1 (racemic) [Example 13, rac-(1R,2R,3S,4R,5S)-5-hydroxy-N-(3-methyl-5-(trifluoromethyl)phenyl)-3-(3-(trifluoromethyl)phenyl)-7-oxabicyclo[2.2.1]heptane-2-carboxamide]	11 µM	105%		
CCOc1ccc(NC(=O)[C@@H]2[C@@H](c3cn(C)nc3C(F)(F)F)[C@H]3O[C@@H]2C[C@@H]3O)cc1C(F)(F)F (racemic) [Example 44, rac-(1R,2R,3S,4R,5S)—N-(4-ethoxy-3-(trifluormethyl)phenyl)-5-hydroxy-3-(1-methyl-3-(trifluoromethyl)-1H-pyrazol-4-yl)-7-oxabicyclo[2.2.1]heptane-2-carboxamide]	14 µM	89%		
rac-(1R 2R,3S,4R,5S)—N-(4-fluoro-3-(trifluoromethyl)phenyl-5-hydroxy-3-(1-methyl-3-(trifluoromethyl)-1H-pyrazol-4-yl)-7-oxabicyclo[2.2.1]heptane-2-carboxamide [Example 56]			> 30 µM	32%
Cc1ccc(NC(=O)[C@@H]2[C@@H](c3ccnc(C(F)(F)F)c3)[C@H]3O[C@@H]2C[C@@H]3O)cc1C(F)(F)F (racemic) [Example 64, rac-(1R,2R,3S,4R,5S)-5-hydroxy-N-(4-methy-3-(trifluoromethyl)phenyl-3-(2-(trifluoromethyl)pyridin-4-yl)-7-oxabicyclo[2.2.1]heptane-2-carboxamide]	13 µM	83%		
Cn1cc([C@H]2[C@H]3O[C@H](C[C@@H]3O)[C@@H]2C(=O)Nc2cccc(C(F)(F)F)c2)c(C(F)(F)F)n1 (single isomer, unassigned) [Example 32a, (1R,2R,3S,4R,5S)-5-hydroxy-3-(1-methyl-3-(trifluoromethyl)-1H-pyrazol-4-yl)-N-(3-(trifluoromethyl)phenyl)-7-oxabicyclo[2.2.1]heptane-2-carboxamide or (1S,2S,3R,4S,5R)-5-hydroxy-3-(1-methyl-3-(trifluoromethyl)-1H-pyrazol-4-yl)-N-(3-(trifluoromethyl)phenyl)-7-oxabicyclo[2.2.1]heptane-2-carboxamide]			6.6 µM	87%
Cc1cc(NC(=O)[C@@H]2[C@@H](c3cn(C)nc3C(F)(F)F)[C@H]3O[C@@H]2C[C@@H]3O)cc(C(F)(F)F)c1 (racemic) [Example 30, rac-(1R,2R,3S,4R,5)-5-hydroxy-3-(1-methyl-3-(trifluoromethyl)-1H-pyrazol-4-yl)-N-(3-methyl-5-(trifluoromethyl)phenyl)-7-oxabicyclo[2.2.1]heptane-2-carboxamide]	7.2 µM	81%		
Cn1cc([C@H]2[C@H]3O[C@H](C[C@@H]3O)[C@@H]2C(=O)Nc2cc(Cl)cc(C(F)(F)F)c2)c(C(F)(F)F)n1 (racemic) [Example 34, rac-(1R,2R,3S,4R,5)-N-(3-chloro-5-(trifluoromethyl)phenyl)-5-hydroxy-3-(1-methyl-3-(trifluoromethyl)-1H-pyrazol-4-yl)-7-oxabicyclo[2.2.1]heptane-2-carboxamide]	6.5 µM	101%		
O=C(Nc1cccc(C(F)(F)F)c1)[C@@H]1[C@@H](c2ccnc(C(F)(F)F)c2)[C@H]2O[C@@H]1C[C@@H]2O (racemic) [Example 63, rac-(1R,2R,3S,4R,5S)-5-hydroxy-N-(3-(trifluoromethyl)phenyl)-3-(2-(trifluoromethyl)pyridin-4-yl)-7-oxabicyclo[2.2.1]heptane-2-carboxamide]	18 µM	44%		
Cn1cc([C@H]2[C@H]3O[C@H](C[C@@H]3O)[C@@H]2C(=O)Nc2cccc(C(F)(F)F)c2)c(C(F)(F)F)n1 (racemic) [Example 32, rac-(1R,2R,3S,4R,5S)-5-hydroxy-3-(1-methyl-3-(trifluoromethyl)-1H-pyrazol-4-yl)-N-(3-(trifluoromethyl)phenyl)-7-oxabicyclo[2.2.1]heptane-2-carboxamide]	7.2 µM	78%		
Cn1cc([C@H]2[C@H]3O[C@H](C[C@@H]3O)[C@@H]2C(=O)Nc2cc(C(F)(F)F)c(Cl)cn2)c(C(F)(F)F)n1 (single isomer, unassigned) [Example 36a, (1R 2R,3S,4R,5S)—N-(5-chloro-4-(trifluoromethyl)pyridin-2-yl)-5-hydroxy-3-(1-methyl-3-(trifluoromethyl)-1H-pyrazol-4-yl)-7-oxabicyclo[2.2.1]heptane-2-carboxamide or (1S,2S,3R,4S,5R)—N-(5-chloro-4-(trifluoromethyl)pyridin-2-yl)-5-hydroxy-3-(1-methyl-3-(trifluoromethyl)-1H-pyrazol-4-yl)-7-oxabicyclo[2.2.1]heptane-2-carboxamide]			9.4 µM	95%
Cc1cc(NC(=O)[C@@H]2[C@@H](c3cccc(C(F)(F)F)c3)[C@H]3O[C@@H]2C[C@@H]3O)cnc1C(F)(F)F (racemic) [Example 28, rac-(1R,2R,3S,4R,5S)-5-hydroxy-N-(5-methyl-6-(trifluoromethyl)pyridin-3-yl)-3-(3-(trifluoromethyl)phenyl)-7-oxabicyclo[2.2.1]heptane-2-carboxamide]	6 µM	98%		
Cn1cc([C@H]2[C@H]3O[C@H](C[C@@H]3O)[C@@H]2C(=O)Nc2cc(C(F)(F)F)ccc2C#N)c(C(F)(F)F)n1 (racemic) [Example 49, rac-(1R,2R,3S,4R,5S)—N-(2-cyano-5-(trifluoromethyl)phenyl)-5-hydroxy-3-(1-methyl-3-(trifluoromethyl)-1H-pyrazol-4-yl)-7-oxabicyclo[2.2.1]heptane-2-carboxamide]	0.53 µM	96%		
